Results as given in patent US10722501B2 (BAYER AKTIENGESELLSCHAFT, priority 2016, dated 2020).

Target: T1, recombinant full-length human prolyl endopeptidase (PREP) (Homo sapiens, UniProt P48147)
T1 construct: To recombinant full-length human prolyl endopeptidase (PREP, R&D-Systems, 4308-SE); purchased R&D-Systems 4308-SE
T1 sequence (P48147 1-710): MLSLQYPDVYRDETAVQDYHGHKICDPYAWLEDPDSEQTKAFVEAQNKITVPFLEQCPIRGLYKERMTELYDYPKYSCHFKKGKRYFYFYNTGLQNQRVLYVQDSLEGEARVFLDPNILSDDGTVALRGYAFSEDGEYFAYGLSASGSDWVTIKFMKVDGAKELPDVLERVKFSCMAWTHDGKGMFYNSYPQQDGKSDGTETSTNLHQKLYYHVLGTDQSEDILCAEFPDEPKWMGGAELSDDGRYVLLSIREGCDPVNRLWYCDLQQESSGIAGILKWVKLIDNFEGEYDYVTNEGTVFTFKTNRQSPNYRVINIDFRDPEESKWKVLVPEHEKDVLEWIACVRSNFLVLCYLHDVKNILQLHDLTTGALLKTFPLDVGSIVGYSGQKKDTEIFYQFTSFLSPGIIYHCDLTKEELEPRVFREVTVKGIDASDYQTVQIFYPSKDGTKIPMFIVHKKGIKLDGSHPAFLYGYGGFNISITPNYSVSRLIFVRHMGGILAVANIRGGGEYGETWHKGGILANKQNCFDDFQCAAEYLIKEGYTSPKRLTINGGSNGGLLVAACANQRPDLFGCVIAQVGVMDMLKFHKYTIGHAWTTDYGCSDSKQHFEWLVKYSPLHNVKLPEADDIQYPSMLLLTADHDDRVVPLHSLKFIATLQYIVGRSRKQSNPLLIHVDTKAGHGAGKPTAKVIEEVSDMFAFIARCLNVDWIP
Experiment: Biochemical human prolyl endopeptidase (PREP) assay with fluorescently labelled substrate
Conditions: substrate Z-Gly-Pro-AMC 50 μM, 32° C., 60 min; some as mean values from multiple independent determinations
How it was run: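 Initial rates of fluorescence increase from 50 μM Z-Gly-Pro-AMC cleavage (ex 360/em 465 nm, 60 min, 32° C) give percent PREP activity versus no-compound control, and IC50 is interpolated. Enzyme used at 0.4 nM (final, example) in Tris pH 7.5 with EDTA, GSH, BSA and Brij-35; compounds span 1 nM to 30 μM.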

| Structure (SMILES) | IC50 |
| --- | --- |
| O=C([C@@H]1CCc2nn(Cc3cccc(C(F)(F)F)c3)c(=O)n21)N1CCCC1 [Example 55, (5S)-5-(Pyrrolidin-1-ylcarbonyl)-2-[3-(trifluoromethyl)benzyl]-2,5,6,7-tetrahydro-3H-pyrrolo[2,1-c][1,2,4]triazol-3-one] | 1.4 nM |
| O=C([C@@H]1CCCc2nn(Cc3ccnc(C(F)(F)F)c3F)c(=O)n21)N1CCCC1 [Example 75, (5S)-2-{[3-Fluoro-2-(trifluoromethyl)pyridin-4-yl]methyl}-5-(pyrrolidin-1-ylcarbonyl)-5,6,7,8-tetrahydro[1,2,4]triazolo[4,3-a]pyridin-3(2H)-one] | 1.1 nM |
| O=C([C@@H]1CCCc2nn(Cc3cc(C(F)(F)F)nc4ccccc34)c(=O)n21)N1CCCC1 [Example 76, (5S)-5-(Pyrrolidin-1-ylcarbonyl)-2-{[2-(trifluoromethyl)quinolin-4-yl]methyl}-5,6,7,8-tetrahydro[1,2,4]triazolo[4,3-a]pyridin-3(2H)-one] | 0.38 nM |
| O=C([C@@H]1CCCc2nn(Cc3ccnc(C(F)(F)F)n3)c(=O)n21)N1CCCC1 [Example 94, (5S)-5-(Pyrrolidin-1-ylcarbonyl)-2-{[2-(trifluoromethyl)pyrimidin-4-yl]methyl}-5,6,7,8-tetrahydro[1,2,4]triazolo[4,3-a]pyridin-3(2H)-one] | 57 nM |
| O=C([C@@H]1CCCc2nn(Cc3ccc(F)c(Cl)c3)c(=O)n21)N1CC[C@H](O)C1 [Example 97, (5S)-2-(3-Chloro-4-fluorobenzyl)-5-{[(3S)-3-hydroxypyrrolidin-1-yl]carbonyl}-5,6,7,8-tetrahydro[1,2,4]triazolo[4,3-a]pyridin-3(2H)-one] | 6.5 nM |
| Cc1ccc(Cn2nc3n(c2=O)[C@H](C(=O)N2CCC[C@H]2C#N)CCC3)cc1 [Example 109, (2S)-1-{[(5S)-2-(4-Methylbenzyl)-3-oxo-2,3,5,6,7,8-hexahydro[1,2,4]triazolo[4,3-a]pyridin-5-yl]carbonyl}pyrrolidine-2-carbonitrile] | 0.21 nM |
| Cc1ccc(Cn2nc3n(c2=O)[C@H](C(=O)N2CC[C@H](F)C2)CCC3)cc1 [Example 110, (5S)-5-{[(3S)-3-Fluoropyrrolidin-1-yl]carbonyl}-2-(4-methylbenzyl)-5,6,7,8-tetrahydro[1,2,4]triazolo[4,3-a]pyridin-3(2H)-one] | 0.32 nM |
| Cc1ccc(Cn2nc3n(c2=O)[C@H](C(=O)N2CC(F)C2)CCC3)cc1 [Example 113, (5S)-5-[(3-Fluoroazetidin-1-yl)carbonyl]-2-(4-methylbenzyl)-5,6,7,8-tetrahydro[1,2,4]triazolo[4,3-a]pyridin-3(2H)-one] | 0.42 nM |
| Cc1ccc(Cn2nc3n(c2=O)[C@H](C(=O)N2CCC[C@@H]2C)CCC3)cc1 [Example 127, 2-(4-Methylbenzyl)-(5S)-{[(2S)-2-methylpyrrolidin-1-yl]carbonyl}-5,6,7,8-tetrahydro[1,2,4]triazolo[4,3-a]pyridin-3(2H)-one] | 43.5 nM |
| Cc1ccc(Cn2nc3n(c2=O)[C@H](C(=O)N2CC(F)(F)C(F)(F)C2)CCC3)cc1 [Example 145, (5S)-2-(4-Methylbenzyl)-5-[(3,3,4,4-tetrafluoropyrrolidin-1-yl)carbonyl]-5,6,7,8-tetrahydro[1,2,4]triazolo[4,3-a]pyridin-3(2H)-one] | 12.7 nM |

More lines, now with the values ahead:

| IC50 | Structure (SMILES) |
| --- | --- |
| 4.75 nM | O=C([C@@H]1CCCc2nn(Cc3ccnc(C(F)(F)F)c3)c(=O)n21)N1CCCC1 [Example 74, (5S)-5-(Pyrrolidin-1-ylcarbonyl)-2-{[2-(trifluoromethyl)pyridin-4-yl]methyl}-5,6,7,8-tetrahydro[1,2,4]triazolo[4,3-a]pyridin-3(2H)-one] |
| 6 nM | O=C([C@@H]1CCCc2nn(Cc3cc(C(F)(F)F)ccn3)c(=O)n21)N1CCCC1 [Example 93, (5S)-5-(Pyrrolidin-1-ylcarbonyl)-2-{[4-(trifluoromethyl)pyridin-2-yl]methyl}-5,6,7,8-tetrahydro[1,2,4]triazolo[4,3-a]pyridin-3(2H)-one] |
| 12.7 nM | O=C([C@@H]1CCCc2nn(Cc3cccc(C(F)(F)F)c3)c(=O)n21)N1CC[C@H](O)C1 [Example 99, (5S)-5-{[(3S)-3-Hydroxypyrrolidin-1-yl]carbonyl}-2-[3-(trifluoromethyl)benzyl]-5,6,7,8-tetrahydro[1,2,4]triazolo[4,3-a]pyridin-3(2H)-one] |
| 0.25 nM | Cc1cc(C)c(Cn2nc3n(c2=O)[C@H](C(=O)N2CCCC2)CCC3)cc1C [Example 102, (5S)-5-(Pyrrolidin-1-ylcarbonyl)-2-(2,4,5-trimethylbenzyl)-5,6,7,8-tetrahydro[1,2,4]triazolo[4,3-a]pyridin-3(2H)-one] |
| 1.7 nM | O=C([C@@H]1CCCc2nn(Cc3ncc(C(F)(F)F)cc3Cl)c(=O)n21)N1CCCC1 [Example 106, (5S)-2-{[3-Chloro-5-(trifluoromethyl)pyridin-2-yl]methyl}-5-(pyrrolidin-1-ylcarbonyl)-5,6,7,8-tetrahydro[1,2,4]triazolo[4,3-a]pyridin-3(2H)-one] |
| 0.15 nM | Cc1ccc(Cn2nc3n(c2=O)[C@H](C(=O)N2CCSC2)CCC3)cc1 [Example 108, (5S)-2-(4-Methylbenzyl)-5-(1,3-thiazolidin-3-ylcarbonyl)-5,6,7,8-tetrahydro[1,2,4]triazolo[4,3-a]pyridin-3(2H)-one] |
| 0.41 nM | Cc1ccc(Cn2nc3n(c2=O)[C@H](C(=O)N2CC[C@@H](F)C2)CCC3)cc1 [Example 111, (5S)-5-{[(3R)-3-Fluoropyrrolidin-1-yl]carbonyl}-2-(4-methylbenzyl)-5,6,7,8-tetrahydro[1,2,4]triazolo[4,3-a]pyridin-3(2H)-one] |
| 10.2 nM | Cc1ccc(Cn2nc3n(c2=O)[C@H](C(=O)N2CC[C@@H](O)C2)CCC3)cc1 [Example 122, (5S)-5-{[(3R)-3-Hydroxypyrrolidin-1-yl]carbonyl}-2-(4-methylbenzyl)-5,6,7,8-tetrahydro[1,2,4]triazolo[4,3-a]pyridin-3(2H)-one] |
| 50.5 nM | CO[C@H]1CCN(C(=O)[C@@H]2CCCc3nn(Cc4ccc(C)cc4)c(=O)n32)C1 [Example 130, (5S)-{[(3S)-3-Methoxypyrrolidin-1-yl]carbonyl}-2-(4-methylbenzyl)-5,6,7,8-tetrahydro[1,2,4]triazolo[4,3-a]pyridin-3(2H)-one] |
| 141 nM | Cc1ccc(Cn2nc3n(c2=O)[C@H](C(=O)N2CCC[C@H]2C)CCC3)cc1 [Example 132, (5S)-2-(4-Methylbenzyl)-{[(2R)-2-methylpyrrolidin-1-yl]carbonyl}-5,6,7,8-tetrahydro[1,2,4]triazolo[4,3-a]pyridin-3(2H)-one] |
| 16 nM | Cc1ccc(Cn2nc3n(c2=O)[C@H](C(=O)N2C[C@H](F)[C@@H](F)C2)CCC3)cc1 [Example 140, (5S)-5-{[(3S,4S)-3,4-Difluoropyrrolidin-1-yl]carbonyl}-2-(4-methylbenzyl)-5,6,7,8-tetrahydro[1,2,4]triazolo[4,3-a]pyridin-3(2H)-one] |
| 13.1 nM | Cc1ccc(Cn2nc3n(c2=O)[C@H](C(=O)N2CC[C@H](C(F)F)C2)CCC3)cc1 [Example 143, (5S)-5-{[(3S)-3-(Difluoromethyl)pyrrolidin-1-yl]carbonyl}-2-(4-methylbenzyl)-5,6,7,8-tetrahydro[1,2,4]triazolo[4,3-a]pyridin-3(2H)-one] |
